Data taken from patent publication US7459447B2, “Method for treating hyperlipidemia” (Kowa Co., Ltd., priority 2004, dated 2008).

System: Hartley male guinea pigs
Assay: Blood cholesterol level lowering effect in guinea pigs, oral administration once a day for 14 days
Assay type: in vivo, guinea pig
Settings: ezetimibe 3 mg/kg, oral once a day for 14 days, blood collected after 18 h fast; for Reduction ratio (%) of blood cholesterol level: vs control group
Description: The blood cholesterol level lowering effect when a calcium salt of pitavastatin and ezetimibe were coadministered was measured by the below-described testing method. For comparison, a calcium salt of atorvastatin was used instead of the calcium salt of pitavastatin and the effect brought about by the concomitant use of two medicaments was measured in a similar manner. • 1. Animals Provided for the Test and Their Breeding Environment
Six-week-old Hartley male guinea pigs (purchased from Nippon SLC) were provided for the test. Throughout the test period, they were bred in a breeding room maintained at a light-dark cycle (a light term by a room light: from 7:00 am to 7:00 pm), a temperature of 23 ±3° C. and a humidity of 55 ±15% and fed with a solid feedstuff (“RC-4”, product of Oriental Yeast Industry) and tap water ad libitum. • 2. Preparation of Medicament
Treatment method according to the invention: The calcium salt of pitavastatin and ezetimibe were suspended in a 0.5 wt. % aqueous solution of carboxymethylcellulose sodium (product of Iwai Chemicals Company) and their concentrations were adjusted to 1 mg/mL and 3 mg/mL, respectively. Since the calcium salt of pitavastatin contained 9.43 wt. % of water, 1.1 times the weight of the dosage was weighed for correction. The suspension was refrigerated (4° C.) in a light resistant bottle and adjustment was conducted every 7 days.
Treatment method for comparison: In a similar manner to that described above except the use of the calcium salt of atorvastatin instead of the calcium salt of pitavastatin, a medicament (atorvastatin calcium 5 mg/mL) for comparison test was prepared. • 3. Testing Method
The treatment method according to the present invention: Twenty four guinea pigs were classified into four groups (each consisting of 6 guinea pigs), that is, a control group, a single administration group of pitavastatin calcium salt (1 mg/kg), a single administration group of ezetimibe (3 mg/kg), and a coadministration group of pitavastatin calcium salt (1 mg/kg) and ezetimibe (3 mg/kg) so that they differ little in the total blood cholesterol level and blood triglyceride level. These two medicaments were each administered at a dose of 1 mL/kg once a day and this administration was repeated for 14 days. To the control group, a 0.5 wt. % aqueous solution (1 mL/kg) of carboxymethylcellulose sodium was orally administered. In each group, the guinea pigs were fasted for 18 hours after the final administration and then the blood was collected from them to measure the blood cholesterol level.
Treatment method for comparison: twenty four guinea pigs were tested in a similar manner to the method according to the invention. The dosage of the calcium salt of atorvastatin was 5 mg/kg in each of the group nourished by the single use of atorvastatin calcium salt and the group nourished by the concomitant use of atorvastatin calcium salt and ezetimibe. • 4. Static Analysis and Data Processing Method
Multigroup comparison between the control group and the medicament administered group was performed using Bartlett's variance analysis—Dunnett's multiple comparative assay. A difference with a significance level less than 5% was regarded as significant. • 5. Results
A reduction ratio (%) is a value represented by ((total blood cholesterol level of control group on average−total blood cholesterol level of each group on average)/(total blood cholesterol level of control group on average))×100, while a relative index is a value represented by (total blood cholesterol level of each group on average)/(total blood cholesterol level of control group on average).

[1] = Table 2 comparison test: atorvastatin Ca 5 mg/kg
[2] = Table 1 test: pitavastatin Ca 1 mg/kg

SMILES	Relative index (total blood cholesterol level of group / control group) [1]	Reduction ratio (%) of blood cholesterol level [1] [%]	Relative index (total blood cholesterol level of group / control group) [2]	Reduction ratio (%) of blood cholesterol level [2] [%]
CC(C)c1c(C(=O)Nc2ccccc2)c(-c2ccccc2)c(-c2ccc(F)cc2)n1CC[C@@H](O)C[C@@H](O)CC(=O)O [atorvastatin Ca]	0.77	23	–	–
O=C1[C@H](CC[C@H](O)c2ccc(F)cc2)[C@@H](c2ccc(O)cc2)N1c1ccc(F)cc1 [ezetimibe, (3R,4S)-1-(4-fluorophenyl)-3-[(3S)-3-(4-fluorophenyl)-3-hydroxypropyl]-4-(4-hydroxyphenyl)-2-azetidinone]	0.81	19	0.79	21
O=C(O)C[C@H](O)C[C@H](O)/C=C/c1c(C2CC2)nc2ccccc2c1-c1ccc(F)cc1 [pitavastatin Ca, (3R,5S,6E)-7-[2-cyclopropyl-4-(4-fluorophenyl)-3-quinolyl]-3,5-dihydroxy-6-heptenoic acid]	–	–	0.71	29
